Assays:
[1] = tested on: aging-accelerated model mice; assay: Endurance evaluation test on treadmill (Example 6); type: in vivo; details: SV group, SV peptide 2 μg/ml one dose every other week plus training
Description: In this example, the number of SV peptide doses and dosage in Example 4 was changed as shown in the following table, and exercise evaluation (endurance evaluation) was performed when SV peptide was continuously administered to aging-accelerated model mice. The conditions other than the number of SV peptide doses and dosage were the same as in Example 4.
Specifically, SV peptide was added to PBS to adjust to a concentration of 2 μg/ml for the injectable formulation, and localized to the bilateral lower limb muscles of each mouse anesthetized by inhalation with sevoflurane immediately after training on Friday every other week (even weeks) (SV group; one dose every other week).
The results of the endurance evaluation test are shown in FIG. 12 with a graph showing the mean running distance for the SV group (n=3) and the PBS group (n=4). A graph showing the difference between the mean running distance on the reference date (30 weeks old) and the mean running distance in each test is also shown in FIG. 13.

fibroblasts [2] = details: see Patent Document 1; cited from earlier work
[3] = tested on: aging-accelerated model mice (SAMP10); assay: Mean cross-sectional area of muscle fibers, HE staining, 40-week-old mice (Example 3); type: in vivo; details: 40-week-old SAMP10 mice; treadmill training plus SV peptide 20 ng/ml; vs PBS control; FIG. 3B
Description: In this example, we evaluated muscle fibers in aging-accelerated model mice after continuous administration of SV peptide.
Aging-accelerated model mice (SAMP10 21 weeks old) were trained on a treadmill (MK-680; Muromachi Kikai Co., Ltd.) (18 m/min×90 min) and subsequent SV peptide administration was performed according to the same schedule as in Example 1. After 36 weeks of age, training on the treadmill and subsequent SV peptide administration were conducted under the same conditions as at 35 weeks of age, and continued until the aging-accelerated model mice reached 40 weeks of age. In the control group, after training under the same conditions as the experimental group, PBS was injected into the bilateral lower limb muscles instead of SV peptide.
The gastrocnemius and soleus muscles of the lower limbs were then removed from 40-week-old aging-accelerated model mice, sections were prepared according to the standard method, and HE staining was performed.

[4] = tested on: aging-accelerated model mice (SAMP10); assay: Exercise evaluation on treadmill, mean workload (Example 4); type: in vivo; details: SV-treated group (training and SV peptide) relative to PBS group; FIG. 6
Description: (§1) Aging-accelerated model mice (SAMP10 28 weeks old) were trained on a treadmill (MK-680; Muromachi Kikai Co., Ltd.) (18 m/min×90 min) and subsequent SV peptide administration was performed according to the schedule in the following table. After 30 weeks of age, training was performed continuously from Monday to Friday of each week. SV peptides were added to PBS to adjust to a concentration of 1 μg/ml or 20 ng/ml for injection formulation. Localized injections were made into the bilateral leg muscles of each mouse anesthetized by inhalation with sevoflurane immediately after training on Tuesday and Friday (SV group). Exercise evaluations were performed after SV peptide localization on Friday.
Exercise evaluations were conducted for endurance evaluation, in which the belt speed on the treadmill was increased incrementally at regular intervals, and for slope-up evaluation, in which the belt incline was increased incrementally at regular intervals. […]
The mean workload was calculated as the mean value of workload calculated by multiplying body weight, running time, slope (grade), running speed, and gravitational acceleration g(9.8 m/s^2) for each mouse in each group by […].

[5] = relative to SVVYGLR (SEQ ID NO.: 1); earlier work of the inventors; cited from earlier work
[6] = tested on: aging-accelerated model mice (SAMP10); assay: Endurance evaluation test on treadmill, mean running distance (Example 4); type: in vivo
Description: In this example, we evaluated exercise in aging-accelerated model mice when SV peptide was administered continuously.
as §1
Exercise evaluations were conducted for endurance evaluation, in which the belt speed on the treadmill was increased incrementally at regular intervals, and for slope-up evaluation, in which the belt incline was increased incrementally at regular intervals. […] In the PBS group as the control group, PBS was localized to the bilateral lower limb muscles instead of SV peptide after training on the treadmill in the same manner as in the SV group.
The results of the endurance evaluation test are shown in FIG. 5 as a graph of the percent change in mean running distance. […] The mean running distance for each group was calculated as the mean value of running distance calculated based on the running time and speed of each mouse in each group (the mean distance was calculated in the same manner hereinafter). […] In the SVN group (SVN group) in which SV peptide was administered at the same site and at the same dose as in the SV group without training on the treadmill, the rate of change in mean running distance was measured.

fibroblasts [7] = details: Non-Patent Documents 5, 6, Patent Documents 1-4; cited from earlier work
[8] = tested on: animal models of injured skeletal muscle; details: local administration, Non-Patent Document 7, Patent Document 5; cited from earlier work

## SVVYGLR [SV peptide, peptide consisting of 7 amino acids (SVVYGLR]
[1]; after 49 weeks of age
  mean running distance: able to maintain the same mean running distance as the 30-week-old group
[1]; from 31 to 48 weeks of age, FIGS. 12 and 13
  mean running distance: increased significantly
Fibroblasts [2]
  type III collagen production-promoting effect / type III collagen secretion: promoting
[3]
  mean cross-sectional area of fast muscle fibers (gastrocnemius muscle): significantly higher than in the control group
  mean cross-sectional area of slow muscle fibers (soleus muscle): significantly higher than in the control group
[4]
  mean workload: higher workload relative to the PBS group
[5]
  angiogenic effect: promoting angiogenesis
[6]; SV group (training and SV peptide), during the measurement period, reference date 30 weeks
  mean running distance compared to the reference date: increased compared to that at the reference date
[6]; SV group (training performed and SV peptide injected, 1 μg/ml or 20 ng/ml, 2 times/W), mean running distance at 30 weeks (reference date) = 100%, FIG. 5
  rate of change of the mean running distance: about 130%
[6]; SVN group: SV peptide at same site and dose without training on the treadmill, not shown in the figure
  mean running distance over time: decreased over time
[6]; SVN group: SV peptide without training on the treadmill, since the reference date (30 weeks = 100%)
  rate of change in mean running distance: ≤ 100%
Fibroblasts [7]
  differentiation of fibroblasts to myofibroblasts: promoting
[8]
  diameter of regenerated muscle fibers: significantly higher
  muscle tissue regeneration: promotes muscle tissue regeneration

Source: patent publication US20230381275A1, “MUSCULAR FUNCTION IMPROVING AGENT FOR SKELETAL MUSCLE OF WHICH FUNCTION IS DEGRADED DUE TO AGING” (OSAKA UNIVERSITY, priority 2020, published 2023)
